Reference: patent US6541519B2, “Methods and compositions for treating lipoxygenase-mediated disease states” (Coastside Bio Resources, priority 2000, dated 2003)
In brackets after ≈: the same amount, converted by molar mass.

What was measured:
A549 cells = experiment: MTT cytotoxicity assay, A549; format: cell-based; settings: Homo sapiens
Protocol: (§1) The relative cytotoxic activity of 12-MTA against human tumor cells was measured by means of a MTT assay. Human cell lines, including H1299, PC3, K562, A549, DU145, and HL60 were used.

12-lipoxygenase = experiment: Inhibition of 12-HETE production in RBL-1 cells (LC/MS/MS); format: cell-based, rat; settings: 100 μg/mL
Protocol: (§2) 12-MTA in rat leukemia (RBL-1) cells were examined. Cells were treated with 12-MTA (5 to 100 μg/ml) for 5 minutes at 37° C. followed by addition of A23187 (1 mM) and arachidonic acid (125 μM). Then the eicosanoids were extracted with hexane:ethyl acetate and analyzed by Multiple Reaction Monitoring in a tandem mass spectrometer (LC/MS/MS). Among seven eicosanoid metabolites, including PGE2, LTB4, 5-, 8-, 11-, 12-, and 15-HETEs, reduced production of 5-HETE and LTB4 in 12-MTA treated cells was observed. […] The inhibitory activity of 12-MTA on production of 5-HETE and LTB4 was concentration-dependent. This study further confirmed that 12-MTA is a 5-lipoxygenase inhibitor. 12-MTA, at 100 μg/mL, inhibited production of 12-HETE by 25% […].

K562 cells = experiment: MTT cytotoxicity assay, K562; format: cell-based; settings: Homo sapiens
Protocol: as §1

PPAR-γ [1] = experiment: PPAR-γ expression by immunoblot, PC3; format: cell-based, human; settings: PC3 cells, 24.2 μg/ml, serum-free media, 24 hours; preliminary data
Protocol: (§3) Peroxisome proliferator-activated receptors (PPAR) represent a family of steroid hormone receptors in a superfamily mainly involved with lipid metabolism. Recently, high levels of PPAR-γ were reportedly expressed in prostate cancer tumor and activation of PPAR-γ was associated with nonapoptotic cell death induced by some PPAR-γ ligands. […] We have examined the effects of 12-MTA on activation of PPAR-γ in DU145 and PC3 cells. Cells were treated with 24.2 μg/ml of 12-MTA in serum-free media. After 24 hours, cells were harvested and expression of PPAR-γ was detected by immunoblot with or without blocking peptide.

5-lipoxygenase [2] = target: T1, 5-lipoxygenase (Homo sapiens, UniProt P09917); experiment: Activity based fractionation, 5-HETE inhibition (UV 235 nm); format: biochemical; settings: preparative TLC spot at 1:100 dilution
T1 sequence (P09917 1-674): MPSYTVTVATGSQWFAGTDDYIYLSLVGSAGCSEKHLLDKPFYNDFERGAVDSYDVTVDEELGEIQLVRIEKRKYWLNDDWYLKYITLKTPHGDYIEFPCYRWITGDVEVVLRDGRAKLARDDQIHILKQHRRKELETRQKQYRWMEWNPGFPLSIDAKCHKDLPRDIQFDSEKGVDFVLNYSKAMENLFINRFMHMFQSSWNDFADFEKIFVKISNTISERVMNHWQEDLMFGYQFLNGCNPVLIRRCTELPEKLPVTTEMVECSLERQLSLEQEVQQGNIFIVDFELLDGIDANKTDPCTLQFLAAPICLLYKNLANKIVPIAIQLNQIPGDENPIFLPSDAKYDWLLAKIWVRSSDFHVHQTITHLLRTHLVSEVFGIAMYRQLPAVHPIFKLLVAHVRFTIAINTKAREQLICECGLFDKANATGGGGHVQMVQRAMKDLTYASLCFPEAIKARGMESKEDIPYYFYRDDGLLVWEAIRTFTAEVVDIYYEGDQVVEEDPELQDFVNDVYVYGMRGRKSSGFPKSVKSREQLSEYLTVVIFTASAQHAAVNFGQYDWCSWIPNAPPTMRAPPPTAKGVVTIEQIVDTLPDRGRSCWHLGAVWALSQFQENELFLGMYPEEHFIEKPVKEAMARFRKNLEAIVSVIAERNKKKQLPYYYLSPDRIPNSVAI
Description: The method of isolation was by ‘activity based fractionation’ using 5- and 12-lipoxygenase inhibition as the guiding assay. Using chromatography, preparative HPLC and preparative TLC of the sea cucumber oil, and checking 5-HETE with detection with UV at 235 nm, one particular spot on the TLC inhibited 5-HETE by approximately 94% at a 1:100 dilution. (FIGS. 3 and 4) The effect of 12-MTA on 5-HETE inhibition was also concentration dependent. The identity of the particular inhibitory ‘spot’ from preparative TLC was later identified by GC/MS, MS and NMR analysis and was confirmed to be 12-methyltetradecanoic acid (12-MTA).

H1299 cells = experiment: MTT cytotoxicity assay, H1299; format: cell-based; settings: Homo sapiens, NCI-H1299
Protocol: as §1

5-lipoxygenase [3] = target: T2, 5-lipoxygenase (Rattus norvegicus, UniProt P12527); experiment: Inhibition of 5-lipoxygenase activity (5-HETE and LTB4 production, LC/MS/MS); format: cell-based; settings: RBL-1 cells, 5 minutes at 37° C., then A23187 and arachidonic acid
T2 construct: endogenous in cells; host or cells: RBL-1 (rat leukemia) cells
T2 sequence (P12527 1-673): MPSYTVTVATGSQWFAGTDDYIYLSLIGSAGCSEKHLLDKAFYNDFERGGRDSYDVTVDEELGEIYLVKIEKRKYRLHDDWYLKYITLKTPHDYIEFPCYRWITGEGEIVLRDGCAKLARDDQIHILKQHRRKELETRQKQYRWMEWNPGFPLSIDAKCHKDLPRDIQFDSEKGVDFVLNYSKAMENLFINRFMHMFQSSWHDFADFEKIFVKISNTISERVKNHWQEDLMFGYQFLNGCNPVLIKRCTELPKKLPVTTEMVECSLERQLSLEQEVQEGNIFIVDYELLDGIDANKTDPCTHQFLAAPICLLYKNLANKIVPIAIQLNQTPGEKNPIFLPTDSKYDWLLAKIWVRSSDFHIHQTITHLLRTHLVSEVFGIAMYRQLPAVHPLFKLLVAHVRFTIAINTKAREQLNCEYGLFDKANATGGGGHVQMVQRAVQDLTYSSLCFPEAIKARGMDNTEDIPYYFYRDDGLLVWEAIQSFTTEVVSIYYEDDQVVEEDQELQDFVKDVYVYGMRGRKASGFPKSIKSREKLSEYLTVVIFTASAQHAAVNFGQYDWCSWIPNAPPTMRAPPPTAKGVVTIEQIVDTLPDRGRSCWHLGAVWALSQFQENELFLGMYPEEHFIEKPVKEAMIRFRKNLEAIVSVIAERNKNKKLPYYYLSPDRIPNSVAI
Protocol: as §2

caspase 3 in PC3 cells = experiment: Caspase 3 activation and PARP cleavage; format: cell-based, human; settings: 24.2 μg/ml, 24 and 48 hours
Protocol: Caspases are a family of aspartate-specific cysteine proteases that are required for apoptosis. The most familiar substrate of caspase is PARP, which is involved with regulation of chromatin structure during differentiation and DNA repair. The native PARP protein (Mr, 116,000) is cleaved by caspase 3 or caspase 7 to yield lower molecular weight fragments. To confirm that the induction of apoptosis by 12-MTA involves activation of caspases, we treated PC3 cells with 24.2 μg/ml of 12-MTA and measured PARP cleavage and caspase 3 activation at 24 and 48 hours.

[4] = system: PC3 human prostate cancer cells; experiment: Morphological changes by scanning electron microscopy; format: cell-based; settings: 24.2 μg/ml in 0.1% DMSO, harvested 30', 1, 2, 4, 24 hours
Protocol: PC3 cells (5×10^5) were plated in 35 mm dishes. After 24 hours, cells were treated with 24.2 μg/ml of 12-MTA in 0.1% DMSO. The cells were harvested at 30′, 1, 2, 4 and 24 hours. Harvested cells were fixed with 2% paraformaldehyde plus 3% glutformaldehyde in 0.1% sodium cacodylate buffer, pH 7.3. Morphological changes were measured by scanning electron microscopy (SEM).

HL60 cells = experiment: MTT cytotoxicity assay, HL60; format: cell-based; settings: Homo sapiens, HL-60
Protocol: as §1

PC3 cells [5] = experiment: MTT cytotoxicity assay, PC3; format: cell-based; settings: Homo sapiens, PC-3
Protocol: as §1

PPAR-γ [6] = experiment: PPAR-γ expression by immunoblot, DU145; format: cell-based, human; settings: DU145 cells, 24.2 μg/ml, serum-free media, 24 hours; preliminary data
Protocol: as §3

DU145 cells = experiment: MTT cytotoxicity assay, DU145; format: cell-based; settings: Homo sapiens, DU-145
Protocol: as §1

PC3 cells [7] = experiment: DNA fragmentation analysis (propidium iodide staining and FACS); format: cell-based, human; settings: 18.15 μg/ml
Protocol: To measure apoptosis directly, PC3 cells were treated with various concentrations of 12-MTA. Cell death by apoptosis was quantified by propidium iodide staining and FACS analysis. This technique measures cells with fragmented DNA, which appear as a population with hypodiploid DNA content (FIG. 2). 12-MTA induced concentration-dependent DNA fragmentation in PC3 cells.

Compound: CCC(C)CCCCCCCCCCC(=O)O (stereo not drawn) [12-MTA, 12-methyltetradecanoic acid]
- IC50 (A549 cells): 21.8 µg/mL (≈ 89.9 µM)
- inhibition of production of 12-HETE (12-lipoxygenase): 25%
- IC50 (K562 cells): 33.1 µg/mL (≈ 137 µM)
- expression of PPAR-γ (PPAR-γ [1]): only slightly increased
- inhibition of 5-HETE (5-lipoxygenase [2]): approximately 94%
- IC50 (H1299 cells): 18.1 µg/mL (≈ 74.9 µM)
- IC50 (5-lipoxygenase [3]): ~103 µM
- PARP cleavage (caspase 3 in PC3 cells): prominent PARP cleavage
- caspase 3 activation (caspase 3 in PC3 cells): can activate caspase 3
- Morphological (apoptotic) changes by SEM [4]: cells exhibited apoptotic changes after 1-hour of exposure
- IC50 (HL60 cells): 20.6 µg/mL (≈ 84.9 µM)
- IC50 (PC3 cells [5]): 30.1 µg/mL (≈ 124 µM)
- expression of PPAR-γ (PPAR-γ [6]): only slightly increased
- IC50 (DU145 cells): 30.2 µg/mL (≈ 125 µM)
- percent of apoptotic cells (fragmented DNA) (PC3 cells [7]): 75%
